Source: patent US20120244106A1 (SANOFI-AVENTIS U.S. LLC, priority 2009, published 2012)

Legend:
Type in all cases: in vivo, humans
[1] = test system: relapsing-remitting multiple sclerosis patients; assay: Confirmed MS relapses / annualized relapse rate, 24-week study, ITT population; conditions: 24 weeks
Description: (§1) A placebo-controlled, double-blinded, randomized study was conducted in relapsing-remitting multiple sclerosis patients who were concurrently on a stable dose of glatiramer acetate. The dose of glatiramer acetate was 20 mg subcutaneously daily.
(§2) Around 40 patients were treated in each treatment group (placebo: 41, 7 mg: 42, and 14 mg: 40). […] The mean age of the study population was 41.4 years. […] The base line Expanded Disability Status Scale (EDSS) score was similar between treatment groups (around 2.5). A few more patients had Magnetic Resonance Image (MRI) disease activity (at least one T1-Gd lesion) at baseline in 7 mg group (28.6%) than in placebo (14.6%) and 14 mg (12.8%) groups.
(§3) Safety was evaluated with reported Treatment Emergent Adverse Events (TEAE), physical examination (every 8-weeks), laboratory data (e.g. Liver Function Test, every 2 weeks), vital signs (every 8-weeks), ECG and abdominal ultrasound (at baseline and at 24-weeks). Brain MRI activity, including T1-gadolinium (T1-Gd) lesions with central reading was recorded every 8-weeks, EDSS scores were recorded at baseline and at 24-weeks, Fatigue impact scale was assessed every 8-weeks, and relapses were assessed at every clinical visit.
Twenty-nine patients experienced a total of 30 confirmed relapses. Two relapses occurred after treatment discontinuation (1 day in one placebo patient, 41 days in one 7 mg patient). Therefore, 28 confirmed relapses occurring in 27 patients were included in the analysis (Table 3).

[2] = test system: relapsing-remitting multiple sclerosis patients; assay: Safety and tolerability (TEAE, laboratory data), 24-week study; conditions: 24 weeks
Description: as §1
Around 40 patients were treated in each treatment group (placebo: 41, 7 mg: 42, and 14 mg: 40).
as §3

[3] = test system: relapsing-remitting multiple sclerosis patients; assay: Brain MRI Gd-enhancing T1-lesions (number and volume), 24-week placebo-controlled add-on study, ITT population; conditions: 24 weeks
Description: as §1, §2, §3

[4] = test system: relapsing-remitting multiple sclerosis patients; assay: Confirmed MS relapses / annualized relapse rate, 48-week treatment period, ITT population; conditions: 48 weeks
Description: Safety was evaluated from TEAE, physical exam (every 6 weeks), laboratory data (every 6 weeks), vital signs (every 6 weeks), ECG (at the close-out visit), pancreatic ultrasound (at the close-out visit) and brain MRI (at the close-out visit). Relapses were recorded and EDSS was performed every 6-weeks.

[5] = test system: relapsing-remitting multiple sclerosis patients; assay: Safety and tolerability (TEAE, laboratory data), 48-week treatment period; conditions: 48 weeks
Description: (§4) Design/Methods: 96 of the 123 patients that were randomized to study treatment ([…]) for the first 6-months in Example 1 completed this 6-month period and accepted to continue medication for an additional 6-month period (placebo: 37, 7 mg: 30, 14 mg: 29). Of the 96 treated patients, 5 patients prematurely withdrew from the study treatment (placebo: 3, 7 mg: 0, and 14 mg: 2). Safety was evaluated from TEAE, physical exam (every 6 weeks), laboratory data (every 6 weeks), vital signs (every 6 weeks), ECG (at the close-out visit), pancreatic ultrasound (at the close-out visit) and brain MRI (at the close-out visit). Relapses were recorded and EDSS was performed every 6-weeks. Annualized relapse rates (ARR) were analyzed by a Poisson model with the total number of confirmed relapses onset between randomization date and last dose date as the response variable, treatment and region as covariates, and log-transformed standardized study duration as an offset variable. The following results report the entire 48-week double-blind treatment period.

[6] = test system: relapsing-remitting multiple sclerosis patients; assay: Brain MRI Gd-enhancing T1-lesions (number and volume), entire 48-week double-blind treatment period, ITT population
Description: as §4
One patient (14 mg group) had one day participation in the study and had no valid baseline MRI data. Two other patients, one in 7 mg and one in 14 mg, prematurely discontinued the study and no post baseline MRI was collected.

[7] = 7 mg teriflunomide + GA 20 mg sc daily
[8] = 14 mg teriflunomide + GA 20 mg sc daily
[9] = 7 mg or 14 mg teriflunomide + GA
[10] = the two teriflunomide groups (7 mg, 14 mg) + GA vs placebo + GA
[11] = 14 mg teriflunomide + GA 20 mg sc daily (group not given)
[12] = 7 mg teriflunomide + GA 20 mg sc daily, 48 weeks

`C/C(O)=C(\C#N)C(=O)Nc1ccc(C(F)(F)F)cc1` [teriflunomide, (Z)-2-cyano-3-hydroxy-but-2-enoic acid-(4′-trifluoromethylphenyl)-amide] was tested, and the “Adjusted annualized relapse rate, estimate (Poisson model)” value (shortened to “Adjusted annualized relapse rate”) [1, 7] was 0.311, the “Total number of relapses” value [1, 7] was 6 and the “Unadjusted annualized relapses rate” value [1, 7] was 0.337 per patient year. For the same compound, the “Adjusted annualized relapse rate” value [1, 8] was 0.647, the “Total number of relapses” value [1, 8] was 12 and the “Unadjusted annualized relapses rate” value [1, 8] was 0.710 per patient year. For the same compound, the “Concurrent increase in ALT>3ULN and in total bilirubin>2ULN” value [2, 9] was “No case”, the Deaths [2, 9] was “No patients died” and the “Number of patients with TEAE leading to treatment discontinuation” value (shortened to “Number of patients with TEAE leading”) [2, 7] was 3. The “Patients with ALT greater than 3ULN” value [2, 7] was 0, the “Patients with TEAE leading to treatment discontinuation (%)” value (from here on “Patients with TEAE leading … (%)”) [2, 7] was 7.1% and the “Proportion of patients with TEAE potentially related to immunosuppression” value [2, 7] was 43%. The “Proportion of patients with a TEAE related to hepatic disorder” value (shortened to “Proportion … to hepatic disorder”) [2, 7] was 9.5%, the TEAE incidence rate [2, 7] was 83.3% and the “Number of patients with TEAE leading” value [2, 8] was 4. For the same compound, the “Patients with ALT greater than 3ULN” value [2, 8] was 1, the “Patients with TEAE leading … (%)” value [2, 8] was 10% and the “Proportion of patients with TEAE potentially related to immunosuppression” value [2, 8] was 38%. The “Proportion … to hepatic disorder” value [2, 8] was 12.2%, the TEAE incidence rate [2, 8] was 87.5% and the Tolerability and safety ([2]; each teriflunomide dose (7 mg, 14 mg) combined with GA) was “acceptable”. The “Proportion of patients with occurrence of decreased WBC count and neutrophils (PCSA)” value [2, 10] was “slightly higher”, the “Patients with >=1 Gd-enhancing T1-lesions post-baseline: No (% of patients)” value [3, 7] was 61.0% and the “Unadjusted Gd-enhancing T1-lesions per scan” value [3, 7] was 0.321. For the same compound, the “Unadjusted Gd-enhancing T1-lesions per scan” value [3, 8] was 0.262, the “Disease control as evaluated by T1-Gd MRI activity” value ([3]; teriflunomide added to stable-dosed GA) was “improved disease control beyond glatiramer acetate alone” and the “Adjusted annualized relapse rate” value [4, 7] was 0.262. For the same compound, the “Number of patients with >=1 relapses: Yes (number of patients)” value [4, 7] was 8, the “Unadjusted annualized relapses rate” value [4, 7] was 0.281 per patient year and the “Adjusted annualized relapse rate” value [4, 8] was 0.497. For the same compound, the “Number of patients with >=1 relapses: Yes (number of patients)” value [4, 8] was 15, the “Unadjusted annualized relapses rate” value [4, 8] was 0.546 per patient year and the “Number of patients experiencing a serious TEAE” value [5, 7] was 5. For the same compound, the “Number of patients with TEAE leading” value [5, 7] was 3, the “Patients experiencing a serious TEAE (%)” value [5, 7] was 11.9% and the “Patients who experienced a TEAE related to hypertension (number)” value [5, 7] was 2. For the same compound, the “Patients with ALT greater than 3×ULN” value [5, 7] was 0, the “Patients with TEAE leading … (%)” value [5, 7] was 7.1% and the “Proportion of patients experiencing a TEAE related to hypersensitivity” value [5, 7] was 14.3%. For the same compound, the “Proportion of patients with a TEAE potentially related to immunosuppression (all infections and hematological disorders)” value [5, 7] was 52.4%, the “Proportion … to hepatic disorder” value [5, 7] was 9.5% and the TEAE incidence rate [5, 7] was 95.2%. For the same compound, the “Number of patients experiencing a serious TEAE” value [5, 11] was 2, the “Patients experiencing a serious TEAE (%)” value [5, 11] was 4.9% and the “Number of patients with TEAE leading” value [5, 8] was 5. The “Patients who experienced a TEAE related to hypertension (number)” value [5, 8] was 2, the “Patients with ALT greater than 3×ULN” value [5, 8] was 1 and the “Patients with TEAE leading … (%)” value [5, 8] was 12.2%. The “Proportion of patients experiencing a TEAE related to hypersensitivity” value [5, 8] was 24.4%, the “Proportion of patients with a TEAE potentially related to immunosuppression (all infections and hematological disorders)” value [5, 8] was 51.2% and the “Proportion … to hepatic disorder” value [5, 8] was 12.2%. The TEAE incidence rate [5, 8] was 92.7%, the Tolerability and safety ([5]; each dose of teriflunomide (7 mg, 14 mg) combined with GA) was “acceptable and manageable” and the “Proportions of patients with occurrence of decreased WBC and neutrophil counts (PCSA)” value [5, 10] was “slightly higher”. The “Patients with >=1 Gd-enhancing T1-lesions post-baseline: No (% of patients)” value [6, 12] was 56.1%, the “Unadjusted Gd-enhancing T1-lesions per scan” value [6, 12] was 0.317 and the “Unadjusted Gd-enhancing T1-lesions per scan” value ([6]; 14 mg teriflunomide + GA 20 mg sc daily, 48 weeks) was 0.233. The “Controlling disease activity as measured by T1-Gd lesions” value ([6]; teriflunomide added to GA, one-year study) was “trend to benefit”.
